Values quoted from earlier work, collected in publication PMC10265003 (Royal Society Open Science, 2023).

Assays:
MCF-7 breast cancer line = conditions: cytotoxic effect against MCF-7 cells, not tested in this paper; cited from earlier work
Text: Dimeric peptides derived from peptide ^26[F]: (RRWQWRFKKLG)2-K-Ahx were synthesized and characterized. The analogues with the highest synthetic viability in terms of purity and yield were ^26[1-Nal] and ^26[hF].

[1] = system: MDA-MB-231 breast cancer cell line; conditions: cytotoxic effect; cited from earlier work
Text: (§1) Solid-phase peptide synthesis has allowed chemical and structural modifications to be made to ACPs in order to enhance their activity and increase their resistance to proteolytic degradation.

[2] = system: MDA-MB-468 breast cancer cell line; conditions: cytotoxic effect; cited from earlier work
Text: as §1

(^20RRWQWRMKKLG^30)2-K-Ahx [LfcinB (20–30)2]
IC50 (MCF-7 breast cancer line): ≥ 60 µM | IC50 [1]: 14 µM | IC50 [2]: 5 µM
